For 18 compounds, Ki and IC50 results are on record in patent publication US20180265515A1 (Genentech, Inc., priority 2015, published 2018).

The target of assay [1] is T1, isolated recombinant JAK1 kinase domain (Homo sapiens, UniProt P23458).
T1 construct: The activity of the isolated recombinant JAK1 and JAK2 kinase domain was measured
The experiment in a line: JAK1 enzyme assay (Caliper LabChip, Ki). It counts as biochemical. Particulars: recombinant JAK1 kinase domain, 25 μM ATP. In a few lines: (§1)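 Values are Ki estimates derived with the Morrison tight-binding equation modified for competition with ATP. Activity of the recombinant kinase domains was measured as peptide phosphorylation on a Caliper LabChip after a 30-minute, 22° C reaction terminated by EDTA.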

In assay [2] the target is T2, isolated recombinant JAK2 kinase domain (Homo sapiens, UniProt O60674).
T2 construct: The activity of the isolated recombinant JAK1 and JAK2 kinase domain was measured
The experiment in a line: JAK2 enzyme assay (Caliper LabChip, Ki). It counts as biochemical. Particulars: 25 μM ATP. The procedure, abridged: as §1

The test system of assay [3] is JAK1-dependent STAT6 phosphorylation downstream of IL-13 stimulation in BEAS-2B human bronchial epithelial cells. As to the kind of experiment: JAK1 pathway assay in BEAS-2B cells (IL-13 stimulated STAT6 phosphorylation, MSD). It counts as cell-based. Particulars: read-out: P-STAT6 BEAS2B + IL13 IC50. The procedure, abridged: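 BEAS-2B human bronchial epithelial cells, plated the day before in complete growth medium, were preincubated with compound for 1 hr at 37° C (0.2% DMSO final), then stimulated with IL-13 at its EC90 for 15 min. STAT6 phosphorylation in lysates was read by MSD; EC50 was taken as 50% inhibition versus DMSO control.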

T2 sequence (O60674 849-1124 limits assumed): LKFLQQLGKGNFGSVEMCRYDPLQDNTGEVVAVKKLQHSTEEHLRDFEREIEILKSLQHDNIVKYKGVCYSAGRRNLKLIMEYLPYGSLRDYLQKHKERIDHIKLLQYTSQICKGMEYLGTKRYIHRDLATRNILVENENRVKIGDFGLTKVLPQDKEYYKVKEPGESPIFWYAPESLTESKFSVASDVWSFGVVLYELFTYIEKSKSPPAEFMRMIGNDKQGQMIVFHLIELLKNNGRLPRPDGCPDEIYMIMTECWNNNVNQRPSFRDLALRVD
T1 sequence (P23458 875-1153 limits assumed): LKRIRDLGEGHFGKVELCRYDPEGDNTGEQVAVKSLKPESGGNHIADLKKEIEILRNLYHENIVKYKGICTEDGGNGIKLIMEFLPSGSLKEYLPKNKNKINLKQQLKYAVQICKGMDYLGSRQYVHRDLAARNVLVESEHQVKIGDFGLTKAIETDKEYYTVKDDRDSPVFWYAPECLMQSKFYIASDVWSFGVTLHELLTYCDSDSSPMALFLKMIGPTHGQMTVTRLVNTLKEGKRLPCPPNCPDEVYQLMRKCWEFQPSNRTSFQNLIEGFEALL

Broadly, the Ki is a measure of affinity in units of concentration, obtained from inhibition or displacement. For orientation: IC50 means the concentration that inhibits the measured activity by half. `COC(=O)N1CCN(CC2CCN(C(=O)Cn3cc(NC(=O)c4cnn5cccnc45)c(-c4cc(SC)ccc4OC(F)F)n3)CC2)CC1` [Example 83, methyl 4-[[1-[2-[3-[2-(difluoromethoxy)-5-methylsulfanyl-phenyl]-4-(pyrazolo[1,5-a]pyrimidine-3-carbonylamino)pyrazol-1-yl]acetyl]-4-piperidyl]methyl]piperazine-1-carboxylate]: the Ki in assay [1] was found to be 0.3 nM; in assay [2] it was 0.44 nM. For the same compound, the IC50 in assay [3] was found to be 10 nM.

For `CSc1ccc(OC(F)F)c(-c2nn(CC(=O)N3CCC(N4CCO[C@H](CO)C4)CC3)cc2NC(=O)c2cnn3cccnc23)c1` [Example 84, N-[3-[2-(difluoromethoxy)-5-methylsulfanyl-phenyl]-1-[2-[4-[(2S)-2-(hydroxymethyl)morpholin-4-yl]-1-piperidyl]-2-oxo-ethyl]pyrazol-4-yl]pyrazolo[1,5-a]pyrimidine-3-carboxamide], the Ki in assay [1] amounted to 0.37 nM; in assay [2] it was 0.53 nM. Moreover, the half-maximal inhibitory concentration (IC50) in assay [3] is 44 nM.

Take `CSc1ccc(OC(F)F)c(-c2nn(CC(=O)N3CCC(N4CCOCC4CO)CC3)cc2NC(=O)c2cnn3cccnc23)c1` (stereo not drawn) [Example 85, N-[3-[2-(difluoromethoxy)-5-methylsulfanyl-phenyl]-1-[2-[4-[3-(hydroxymethyl)morpholin-4-yl]-1-piperidyl]-2-oxo-ethyl]pyrazol-4-yl]pyrazolo[1,5-a]pyrimidine-3-carboxamide]: the Ki stood at 0.33 nM in assay [1] and 0.38 nM in assay [2]. Also, the IC50 in assay [3] came out at 110 nM.

With `CSc1ccc(OC(F)F)c(-c2nn(CC(=O)N3CCC(N4CCO[C@@H](CO)C4)CC3)cc2NC(=O)c2cnn3cccnc23)c1` [Example 86, N-[3-[2-(difluoromethoxy)-5-methylsulfanyl-phenyl]-1-[2-[4-[(2R)-2-(hydroxymethyl)morpholin-4-yl]-1-piperidyl]-2-oxo-ethyl]pyrazol-4-yl]pyrazolo[1,5-a]pyrimidine-3-carboxamide], the inhibitory constant (Ki) in assay [1] was 0.31 nM; in assay [2] it was 0.42 nM. The IC50 in assay [3] is 120 nM.

Regarding `CSc1ccc(OC(F)F)c(-c2nn(CC(=O)N3CCC(CN4CCN(CC(=O)N(C)C)C[C@H]4C)CC3)cc2NC(=O)c2cnn3cccnc23)c1` [Example 87, N-[3-[2-(difluoromethoxy)-5-methylsulfanyl-phenyl]-1-[2-[4-[[(2R)-4-[2-(dimethylamino)-2-oxo-ethyl]-2-methyl-piperazin-1-yl]methyl]-1-piperidyl]-2-oxo-ethyl]pyrazol-4-yl]pyrazolo[1,5-a]pyrimidine-3-carboxamide], the Ki stood at 0.39 nM in assay [1] and 0.61 nM in assay [2]. Besides, the half-maximal inhibitory concentration (IC50) in assay [3] stood at 35 nM.

Consider `CSc1ccc(OC(F)F)c(-c2nn(CC(=O)N3CCC(N4CCN(CC(=O)N5CCOCC5)CC4)CC3)cc2NC(=O)c2cnn3cccnc23)c1` [Example 88, N-[3-[2-(difluoromethoxy)-5-methylsulfanyl-phenyl]-1-[2-[4-[4-(2-morpholino-2-oxo-ethyl)piperazin-1-yl]-1-piperidyl]-2-oxo-ethyl]pyrazol-4-yl]pyrazolo[1,5-a]pyrimidine-3-carboxamide], for which the Ki turned out to be 0.32 nM in assay [1] and 0.49 nM in assay [2]. The IC50 in assay [3] was 470 nM.

In the case of `CSc1ccc(OC(F)F)c(-c2nn(CC(=O)N3CCN(C4CCN(CC(=O)N(C)C)CC4)CC3)cc2NC(=O)c2cnn3cccnc23)c1` [Example 89, N-[3-[2-(difluoromethoxy)-5-methylsulfanyl-phenyl]-1-[2-[4-[1-[2-(dimethylamino)-2-oxo-ethyl]-4-piperidyl]piperazin-1-yl]-2-oxo-ethyl]pyrazol-4-yl]pyrazolo[1,5-a]pyrimidine-3-carboxamide], the Ki in assay [1] amounted to 0.51 nM; in assay [2] it was 0.78 nM. Also, the IC50 in assay [3] came to 200 nM.

Consider `CSc1ccc(OC(F)F)c(-c2nn(Cc3cn(C4CCN(C5COC5)CC4)nn3)cc2NC(=O)c2cnn3cccnc23)c1` [Example 90, N-[3-[2-(difluoromethoxy)-5-methylsulfanyl-phenyl]-1-[[1-[1-(oxetan-3-yl)-4-piperidyl]triazol-4-yl]methyl]pyrazol-4-yl]pyrazolo[1,5-a]pyrimidine-3-carboxamide], for which the Ki in assay [1] was 0.32 nM; in assay [2], 0.14 nM. The IC50 in assay [3] was 22 nM.

Consider `CSc1ccc(OC(F)F)c(-c2nn(C)cc2NC(=O)c2cnn3cccnc23)c1` [Example 91, N-[3-[2-(difluoromethoxy)-5-methylsulfanyl-phenyl]-1-methyl-pyrazol-4-yl]pyrazolo[1,5-a]pyrimidine-3-carboxamide], for which the Ki came out at 0.13 nM in assay [1] and 0.071 nM in assay [2]. For the same compound, the IC50 in assay [3] came out at 3.9 nM.

Turning to `CSc1ccc(OC(F)F)c(-c2nn(CC(=O)N3CCC(N(CCN4CCOCC4)C4COC4)CC3)cc2NC(=O)c2cnn3cccnc23)c1` [Example 92, N-[3-[2-(difluoromethoxy)-5-methylsulfanyl-phenyl]-1-[2-[4-[2-morpholinoethyl(oxetan-3-yl)amino]-1-piperidyl]-2-oxo-ethyl]pyrazol-4-yl]pyrazolo[1,5-a]pyrimidine-3-carboxamide], the inhibitory constant (Ki) in assay [1] was 0.61 nM; in assay [2], 0.77 nM. Also, in assay [3], the IC50 was 1000 nM.

Consider `CSc1ccc(OC(F)F)c(-c2nn(CC(=O)N3CCN(CC4CCN(CC(=O)N5CCOCC5)CC4)CC3)cc2NC(=O)c2cnn3cccnc23)c1` [Example 93, N-[3-[2-(difluoromethoxy)-5-methylsulfanyl-phenyl]-1-[2-[4-[[1-(2-morpholino-2-oxo-ethyl)-4-piperidyl]methyl]piperazin-1-yl]-2-oxo-ethyl]pyrazol-4-yl]pyrazolo[1,5-a]pyrimidine-3-carboxamide], for which the Ki in assay [1] worked out at 0.44 nM; in assay [2], 0.71 nM. Moreover, the IC50 in assay [3] was determined as 26 nM.

Regarding `CSc1ccc(OC(F)F)c(-c2nn(CC(=O)N3CCC(CN4CCN(CC(=O)N(C)C)C[C@@H]4C)CC3)cc2NC(=O)c2cnn3cccnc23)c1` [Example 94, N-[3-[2-(difluoromethoxy)-5-methylsulfanyl-phenyl]-1-[2-[4-[[(2S)-4-[2-(dimethylamino)-2-oxo-ethyl]-2-methyl-piperazin-1-yl]methyl]-1-piperidyl]-2-oxo-ethyl]pyrazol-4-yl]pyrazolo[1,5-a]pyrimidine-3-carboxamide], the figures for the Ki in assay [1] and in assay [2] were 0.46 nM and 0.63 nM, respectively. In addition, the half-inhibitory concentration (IC50) in assay [3] was determined as 62 nM.

On to `CSc1ccc(OC(F)F)c(-c2nn(CC(=O)N3CCC(CN4CCNCC4)CC3)cc2NC(=O)c2cnn3cccnc23)c1` [Example 95, N-[3-[2-(difluoromethoxy)-5-methylsulfanyl-phenyl]-1-[2-oxo-2-[4-(piperazin-1-ylmethyl)-1-piperidyl]ethyl]pyrazol-4-yl]pyrazolo[1,5-a]pyrimidine-3-carboxamide], for which the Ki in assay [1] was found to be 0.37 nM; in assay [2], 0.68 nM. Further, in assay [3], the IC50 is 150 nM.

In the case of `CSc1ccc(OC(F)F)c(-c2nn(Cc3cn(C4CCN(C5CCOC5)CC4)nn3)cc2NC(=O)c2cnn3cccnc23)c1` (stereo not drawn) [Example 96, N-[3-[2-(difluoromethoxy)-5-methylsulfanyl-phenyl]-1-[[1-(1-tetrahydrofuran-3-yl-4-piperidyl)triazol-4-yl]methyl]pyrazol-4-yl]pyrazolo[1,5-a]pyrimidine-3-carboxamide], the inhibitory constant (Ki) worked out at 0.3 nM in assay [1] and 0.2 nM in assay [2]. In addition, the IC50 in assay [3] turned out to be 14 nM.

In the case of `CSc1ccc(OC(F)F)c(-c2nn(CC(=O)N3CCC(CN4CCN(CC(=O)N(C)C)[C@H](C)C4)CC3)cc2NC(=O)c2cnn3cccnc23)c1` [Example 97, N-[3-[2-(difluoromethoxy)-5-methylsulfanyl-phenyl]-1-[2-[4-[[(3R)-4-[2-(dimethylamino)-2-oxo-ethyl]-3-methyl-piperazin-1-yl]methyl]-1-piperidyl]-2-oxo-ethyl]pyrazol-4-yl]pyrazolo[1,5-a]pyrimidine-3-carboxamide], the Ki is 0.38 nM in assay [1] and 0.62 nM in assay [2]. In addition, the IC50 in assay [3] amounted to 30 nM.

For `CSc1ccc(OC(F)F)c(-c2nn(CC(=O)N3CCC(CN4C[C@@H](C)N(CC(=O)N(C)C)C[C@@H]4C)CC3)cc2NC(=O)c2cnn3cccnc23)c1` [Example 98, N-[3-[2-(difluoromethoxy)-5-methylsulfanyl-phenyl]-1-[2-[4-[[(2S,5R)-4-[2-(dimethylamino)-2-oxo-ethyl]-2,5-dimethyl-piperazin-1-yl]methyl]-1-piperidyl]-2-oxo-ethyl]pyrazol-4-yl]pyrazolo[1,5-a]pyrimidine-3-carboxamide], the Ki in assay [1] amounted to 0.64 nM; in assay [2], 1.2 nM. Further, the IC50 in assay [3] amounted to 37 nM.

`CSc1ccc(OC(F)F)c(-c2nn(CC(=O)N3CCN([C@H]4CC[C@@H](C#N)CC4)CC3)cc2NC(=O)c2cnn3cccnc23)c1` [Example 99, N-[1-[2-[4-(4-cyanocyclohexyl)piperazin-1-yl]-2-oxo-ethyl]-3-[2-(difluoromethoxy)-5-methylsulfanyl-phenyl]pyrazol-4-yl]pyrazolo[1,5-a]pyrimidine-3-carboxamide]: the Ki in assay [1] amounted to 0.38 nM; in assay [2], 0.56 nM. Further, the 50% inhibitory concentration (IC50) in assay [3] was 9.5 nM.

As to `CSc1ccc(OC(F)F)c(-c2nn(CC(=O)N3CCN([C@H]4CC[C@H](C#N)CC4)CC3)cc2NC(=O)c2cnn3cccnc23)c1` [Example 100, N-[1-[2-[4-(4-cyanocyclohexyl)piperazin-1-yl]-2-oxo-ethyl]-3-[2-(difluoromethoxy)-5-methylsulfanyl-phenyl]pyrazol-4-yl]pyrazolo[1,5-a]pyrimidine-3-carboxamide], the Ki was determined as 0.41 nM in assay [1] and 0.6 nM in assay [2]. Besides, in assay [3], the IC50 was found to be 9.4 nM.
